The target of this assay is T1, PD-1-Ig binding to PD-L1-TVMV-His (PD-L1-His) (Homo sapiens, UniProt Q9NZQ7).
T1 construct: hPDL1(19-239)-TVMV-His; TVMV protease cleavage site (C); made in house; host or cells: HEK293T cells
In words: PD-1/PD-L1 Homogenous Time-Resolved Fluorescence (HTRF) binding assay. As to conditions: PD-1-Ig/PD-L1-His binding. The text has this: The ability of the macrocyclic peptides of the present disclosure to bind to PD-L1 was investigated using a PD-1/PD-L1 Homogenous Time-Resolved Fluorescence (HTRF) binding assay.
Homogenous Time-Resolved Fluorescence (HTRF) Assays of Binding of Soluble PD-1 to Soluble PD-L1. Soluble PD-1 and soluble PD-L1 refers to proteins with carboxyl-end truncations that remove the transmembrane-spanning regions and are fused to heterologous sequences, specifically the Fc portion of the human immunoglobuling G sequence (Ig) or the hexahistidine epitope tag (His). All binding studies were performed in an HTRF assay buffer consisting of dPBS supplemented with 0.1% (w/v) bovine serum albumin and 0.05% (v/v) Tween-20. For the PD-1-Ig/PD-L1-His binding assay, inhibitors were pre-incubated with PD-L1-His (10 nM final) for 15 m in 4 μl of assay buffer, followed by addition of PD-1-Ig (20 nM final) in 1 μl of assay buffer and further incubation for 15 m. PD-L1 fusion proteins from either human, cynomologous macaques, mouse, or other species were used. HTRF detection was achieved using europium crypate-labeled anti-Ig monoclonal antibody (1 nM final) and allophycocyanin (APC) labeled anti-His monoclonal antibody (20 nM final). Antibodies were diluted in HTRF detection buffer and 5 μl was dispensed on top of binding reaction. The reaction was allowed to equilibrate for 30 minutes and signal (665 nm/620 nm ratio) was obtained using an EnVision fluorometer. Additional binding assays were established between PD-1-Ig/PD-L2-His (20 and 5 nM, respectively), CD80-His/PD-L1-Ig (100 and 10 nM, respectively) and CD80-His/CTLA4-Ig (10 and 5 nM, respectively). Binding/competition studies between biotinylated Compound No. 71 and human PD-L1-His were performed as follows. Macrocyclic peptide inhibitors were pre-incubated with PD-L1-His (10 nM final) for 60 minutes in 4 μl of assay buffer followed by addition of biotinylated Compound No. 71 (0.5 nM final) in 1 μl of assay buffer. Binding was allowed to equilibrate for 30 minutes followed by addition of europium crypated labeled Streptavidin (2.5 pM final) and APC-labeled anti-His (20 nM final) in 5 μl of HTRF buffer. The reaction was allowed to equilibrate for 30 m and signal (665 nm/620 nm ratio) was obtained using an EnVision fluorometer.
Recombinant Proteins. Carboxyl-truncated human PD-1 (amino acids 25-167) with a C-terminal human Ig epitope tag [hPD-1 (25-167)-3S-IG] and human PD-L1 (amino acids 18-239) with a C-terminal His epitope tag [hPD-L1(19-239)-tobacco vein mottling virus protease cleavage site (TVMV)-His] were expressed in HEK293T cells and purified sequentially by recombinant Protein A affinity chromatography and size exclusion chromatography. Human PD-L2-His (Sino Biologicals), CD80-His (Sino Biologicals), CTLA4-Ig (RnD Systems) were all obtained through commercial sources.
Ranges are as follows: A=0.10-10 μM; B=0.01-0.099 μM; C=0.004-0.0099 μM.

pIC50: −log10 of the molar value. Starred links: 1 amine or outer side, 2 acyl side, 3 side chain; linkers in the order of their positions; H or OH if unused. Positions of bridges follow the written chain, without caps; N, C: chain ends. Non-standard residues stand in square brackets, D forms with d. Residues, ends and D or L forms follow the SMILES beside them. ξ: configuration not given here. X1 = C=C[C@H]1C[C@@]1(N[*:1])C(=O)[*:2]; X2 = CC[C@H]1C[C@@]1(N[*:1])C(=O)[*:2]; X4 = C[C@H]1C[C@@]1(N[*:1])C(=O)[*:2]; Bta = N[C@@H](Cc1csc2ccccc12)C(=O)O; X3 = C[C@H]1CC1(N[*:1])C(=O)[*:2]; Hyp = O=C(O)[C@@H]1C[C@@H](O)CN1; NMeNle = CCCC[C@H](NC)C(=O)O; NMeA = CN[C@@H](C)C(=O)O; Ac5c = NC1(C(=O)O)CCCC1; Dab = NCC[C@H](N)C(=O)O; Dap = NC[C@H](N)C(=O)O; Ac3c = NC1(C(=O)O)CC1; Aib = CC(C)(N)C(=O)O; ξC = NC(CS)C(=O)O

T1 sequence (Q9NZQ7 with tags, fused parts or gaps): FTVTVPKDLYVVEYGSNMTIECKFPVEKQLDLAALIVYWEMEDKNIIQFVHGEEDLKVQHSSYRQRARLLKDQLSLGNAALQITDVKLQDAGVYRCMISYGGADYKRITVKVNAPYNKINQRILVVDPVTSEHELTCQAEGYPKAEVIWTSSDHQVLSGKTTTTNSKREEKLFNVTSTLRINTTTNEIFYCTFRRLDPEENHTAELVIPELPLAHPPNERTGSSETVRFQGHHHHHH

On to `CCCC[C@H]1C(=O)N(C)[C@@H](CCCC)C(=O)N[C@@H](CCCNC(=N)N)C(=O)NC(C(=O)NCC(N)=O)CSCC(=O)N[C@@H](Cc2ccc(O)cc2)C(=O)NC(C)(C)C(=O)N[C@@H](CC(N)=O)C(=O)N2CCC[C@H]2C(=O)N[C@@H](Cc2c[nH]cn2)C(=O)N[C@@H](CC(C)C)C(=O)N2C[C@H](O)C[C@H]2C(=O)N[C@@H](Cc2c[nH]c3ccccc23)C(=O)N[C@@H](CO)C(=O)N[C@@H](Cc2c[nH]c3ccccc23)C(=O)N1C` (stereo partly drawn) [Example 9004], for which the pIC50 (in general, the IC50 on a negative log10 scale, so that one unit is a factor of ten) (values given as range classes) is 7.00 to 8.00.
On the same count and under the same terms, the same measure for `CCCC[C@H]1C(=O)N(C)[C@@H](CCCC)C(=O)N[C@@H](CC(C)C)C(=O)N[C@H](C(=O)NCC(N)=O)CSCC(=O)N[C@@H](Cc2ccc(O)cc2)C(=O)N(C)[C@@H](C)C(=O)N[C@@H](CC(N)=O)C(=O)N2CCC[C@H]2C(=O)NC2(CCCC2)C(=O)N[C@@H](CC(C)C)C(=O)N2C[C@H](O)C[C@H]2C(=O)N[C@@H](Cc2c[nH]c3ccccc23)C(=O)N[C@@H](CCN)C(=O)N[C@@H](Cc2c[nH]c3ccccc23)C(=O)N1C` [Example 9017] ({CH2CO}-Y[NMeA]NP[Ac5c]L[Hyp]W[Dab]W[NMeNle][NMeNle]LCG-NH2; thioether N-14): 7.00 to 8.00.
`CCCC[C@H]1C(=O)N(C)[C@@H](CCCC)C(=O)N[C@@H](CCCNC(=N)N)C(=O)NC(C(=O)NCC(N)=O)CSCC(=O)N[C@@H](Cc2ccc(O)cc2)C(=O)N(C)[C@@H](C)C(=O)N[C@@H](CC(N)=O)C(=O)N2CCC[C@H]2C(=O)N[C@@H](Cc2cnc[nH]2)C(=O)N[C@@H](CC(C)C)C(=O)NC2(C[C@@H]2C)C(=O)N[C@@H](Cc2c[nH]c3ccccc23)C(=O)N[C@@H](CO)C(=O)N[C@@H](Cc2csc3ccccc23)C(=O)N1C` (stereo partly drawn) [Example 10005] ({CH2CO}-Y[NMeA]NPHL[X3]WS[Bta][NMeNle][NMeNle]R[ξC]G-NH2; thioether N-14) showed a pIC50 (numeric values) of 6.00.
Under “values given as range classes”, `CCCC[C@H]1C(=O)N(C)[C@@H](CCCC)C(=O)N[C@@H](CCCNC(=N)N)C(=O)NC(C(=O)NCC(N)=O)CSCC(=O)N[C@@H](Cc2ccc(O)cc2)C(=O)NC2(CC2)C(=O)N[C@@H](CC(N)=O)C(=O)N2CCC[C@H]2C(=O)N[C@@H](Cc2c[nH]cn2)C(=O)N[C@@H](CC(C)C)C(=O)N2C[C@H](O)C[C@H]2C(=O)N[C@@H](Cc2c[nH]c3ccccc23)C(=O)N[C@@H](CO)C(=O)N[C@@H](Cc2csc3ccccc23)C(=O)N1C` (stereo partly drawn) [Example 9001] ({CH2CO}-Y[Ac3c]NPHL[Hyp]WS[Bta][NMeNle][NMeNle]R[ξC]G-NH2; thioether N-14) had a pIC50 of 8.00 to 8.40.
Same read-out and setting: the same measure for `C=C[C@H]1C[C@]12NC(=O)[C@H](CC(N)=O)NC(=O)[C@H](C)N(C)C(=O)[C@H](Cc1ccc(O)cc1)NC(=O)CSCC(C(=O)NCC(N)=O)NC(=O)[C@H](CCCNC(=N)N)NC(=O)[C@H](CCCC)N(C)C(=O)[C@H](CCCC)N(C)C(=O)[C@H](Cc1csc3ccccc13)NC(=O)[C@H](CO)NC(=O)[C@H](Cc1c[nH]c3ccccc13)NC(=O)[C@@H]1CCCN1C(=O)[C@H](CC(C)C)NC(=O)[C@H](Cc1cnc[nH]1)NC2=O` (stereo partly drawn) [Example 10001] ({CH2CO}-Y[NMeA]N[X1]HLPWS[Bta][NMeNle][NMeNle]R[ξC]G-NH2; thioether N-14): 5.00 to 7.00; for `CCCC[C@H]1C(=O)N(C)[C@@H](CCCC)C(=O)N[C@@H](CC(C)C)C(=O)N[C@H](C(=O)NCC(N)=O)CSCC(=O)N[C@@H](Cc2ccc(O)cc2)C(=O)N(C)[C@@H](C)C(=O)N[C@@H](CC(N)=O)C(=O)N2CCC[C@H]2C(=O)N[C@@H](CN)C(=O)NC(C)(C)C(=O)N2C[C@H](O)C[C@H]2C(=O)N[C@@H](Cc2c[nH]c3ccccc23)C(=O)N[C@@H](CCN)C(=O)N[C@@H](Cc2c[nH]c3ccccc23)C(=O)N1C` [Example 9009] ({CH2CO}-Y[NMeA]NP[Dap][Aib][Hyp]W[Dab]W[NMeNle][NMeNle]LCG-NH2; thioether N-14): 5.00 to 7.00.
The same measure, in the same setting: the same measure for `CCCC[C@H]1C(=O)N(C)[C@@H](CCCC)C(=O)N[C@@H](CCCNC(=N)N)C(=O)NC(C(=O)NCC(N)=O)CSCC(=O)N[C@@H](Cc2ccc(O)cc2)C(=O)N(C)[C@@H](C)C(=O)N[C@@H](CC(N)=O)C(=O)N[C@]2(C[C@@H]2CC)C(=O)N[C@@H](Cc2cnc[nH]2)C(=O)N[C@@H](CC(C)C)C(=O)N2C[C@H](O)C[C@H]2C(=O)N[C@@H](Cc2c[nH]c3ccccc23)C(=O)N[C@@H](CO)C(=O)N[C@@H](Cc2c[nH]c3ccccc23)C(=O)N1C` (stereo partly drawn) [Example 10009] ({CH2CO}-Y[NMeA]N[X2]HL[Hyp]WSW[NMeNle][NMeNle]R[ξC]G-NH2; thioether N-14): 5.00 to 7.00.
For the compound `CCCC[C@H]1C(=O)N(C)[C@@H](CCCC)C(=O)N[C@@H](CC(C)C)C(=O)N[C@H](C(=O)NCC(N)=O)CSCC(=O)N[C@@H](Cc2ccc(O)cc2)C(=O)N(C)[C@@H](C)C(=O)N[C@@H](CC(N)=O)C(=O)N2CCC[C@H]2C(=O)N[C@@H](CN)C(=O)N[C@@H](CC(C)C)C(=O)N2C[C@H](O)C[C@H]2C(=O)N[C@@H](Cc2c[nH]c3ccccc23)C(=O)NC2(CC2)C(=O)N[C@@H](Cc2c[nH]c3ccccc23)C(=O)N1C` [Example 9008] ({CH2CO}-Y[NMeA]NP[Dap]L[Hyp]W[Ac3c]W[NMeNle][NMeNle]LCG-NH2; thioether N-14), the pIC50 (numeric values) was 5.44.
For `CCCC[C@H]1C(=O)N(C)[C@@H](CCCC)C(=O)N[C@@H](CCCNC(=N)N)C(=O)NC(C(=O)NCC(N)=O)CSCC(=O)N[C@@H](Cc2ccc(O)cc2)C(=O)N(C)[C@@H](C)C(=O)N[C@@H](CC(N)=O)C(=O)N[C@]2(C[C@@H]2C)C(=O)N[C@@H](Cc2cnc[nH]2)C(=O)N[C@@H](CC(C)C)C(=O)N2CCC[C@H]2C(=O)N[C@@H](Cc2c[nH]c3ccccc23)C(=O)N[C@@H](CO)C(=O)N[C@@H](Cc2csc3ccccc23)C(=O)N1C` (stereo partly drawn) [Example 10003] ({CH2CO}-Y[NMeA]N[X4]HLPWS[Bta][NMeNle][NMeNle]R[ξC]G-NH2; thioether N-14), under “values given as range classes”, the pIC50 is 5.00 to 7.00.
The same measure, in the same setting: the same measure for `CCCC[C@H]1C(=O)N(C)[C@@H](CCCC)C(=O)N[C@@H](CC(C)C)C(=O)N[C@H](C(=O)NCC(N)=O)CSCC(=O)N[C@@H](Cc2ccc(O)cc2)C(=O)N(C)[C@@H](C)C(=O)NC2(CC2)C(=O)N2CCC[C@H]2C(=O)N[C@@H](CN)C(=O)N[C@@H](CC(C)C)C(=O)N2C[C@H](O)C[C@H]2C(=O)N[C@@H](Cc2c[nH]c3ccccc23)C(=O)N[C@@H](CCN)C(=O)N[C@@H](Cc2c[nH]c3ccccc23)C(=O)N1C` [Example 9014] ({CH2CO}-Y[NMeA][Ac3c]P[Dap]L[Hyp]W[Dab]W[NMeNle][NMeNle]LCG-NH2; thioether N-14): 5.00 to 7.00.
Consider `CCCC[C@H]1C(=O)N(C)[C@@H](CCCC)C(=O)N[C@@H](CCCNC(=N)N)C(=O)NC(C(=O)NCC(N)=O)CSCC(=O)N[C@@H](Cc2ccc(O)cc2)C(=O)NC(C)(C)C(=O)N[C@@H](CC(N)=O)C(=O)N2CCC[C@H]2C(=O)N[C@@H](Cc2c[nH]cn2)C(=O)N[C@@H](CC(C)C)C(=O)N2C[C@H](O)C[C@H]2C(=O)N[C@@H](Cc2c[nH]c3ccccc23)C(=O)N[C@@H](CO)C(=O)N[C@@H](Cc2csc3ccccc23)C(=O)N1C` (stereo partly drawn) [Example 9003] ({CH2CO}-Y[Aib]NPHL[Hyp]WS[Bta][NMeNle][NMeNle]R[ξC]G-NH2; thioether N-14), for which, for the setting “values given as range classes”, the negative logarithm of the IC50 (pIC50) was 7.00 to 8.00.
Same read-out and setting: the same measure for `CCCC[C@H]1C(=O)N(C)[C@@H](CCCC)C(=O)N[C@@H](CCCNC(=N)N)C(=O)NC(C(=O)NCC(N)=O)CSCC(=O)N[C@@H](Cc2ccc(O)cc2)C(=O)N(C)[C@@H](C)C(=O)N[C@@H](CC(N)=O)C(=O)N[C@]2(C[C@@H]2C)C(=O)N[C@@H](Cc2cnc[nH]2)C(=O)N[C@@H](CC(C)C)C(=O)N2C[C@H](O)C[C@H]2C(=O)N[C@@H](Cc2c[nH]c3ccccc23)C(=O)N[C@@H](CO)C(=O)N[C@@H](Cc2csc3ccccc23)C(=O)N1C` (stereo partly drawn) [Example 10004] ({CH2CO}-Y[NMeA]N[X4]HL[Hyp]WS[Bta][NMeNle][NMeNle]R[ξC]G-NH2; thioether N-14): 7.00 to 8.00.

The values above are taken from US9944678B2, “Immunomodulators” (BRISTOL-MYERS SQUIBB COMPANY, priority 2014, dated 2018).
